“Also recorded” adds a separate entry of the source.

The series is described as follows: Dissolution of Retinol in water. It is filed as physicochemical. Particulars: without TPGS. The text has this:
All attempts to dissolve Retinol in water were unsuccessful except when using a micellar formulation with TPGS, as per the method described in Example 1.
Retinol. No research was undertaken on Objective 2 because Retinol is insoluble in water.

On to `CC1=C(/C=C/C(C)=C/C=C/C(C)=C/CO)C(C)(C)CCC1` [Retinol], for which the solubility in water result is given as “insoluble; also recorded: unsuccessful”.

For the origin of these results see EP3454821B1, “MICELLES OF D-ALPHA-TOCOPHERYL POLYETHYLENE GLYCOL 1000 SUCCINATE” (Phytoceutical Limited, priority 2016, dated 2017).
